From patent US8349885B2, “Indole and indazole derivatives having a cell-, tissue- and organ-preserving effect” (LG Life Sciences Ltd., priority 2008, dated 2013)

These compounds were tested on primary cultured hepatocytes (assay: Cell-protecting effect against cold shock in primary cultured hepatocytes (WST-1)). Conditions: Rattus norvegicus, Hepatocyte, 37° C. for 1 hour, 4° C. for 22 hours, then 37° C., cell viability by WST-1.
Assay type: cell-based
Description: In order to reproduce a condition for preservation prior to organ transplantation, primary cultured hepatocytes were prepared according to Experimental Example 1 and treated with the compounds of the working examples at 9 different concentrations that had been prepared by 3-fold serial dilution method using a starting concentration of 25 μM. The mixture was cultured at 37° C. for 1 hour, stored at 4° C. for 22 hours, and then transferred into an incubator at 37° C. and cultured therein. Cell viability was measured by the optical density at 440 nm according to the WST-1 method (MK-400, Takeda), and IC50 (unit: μM) was obtained using prism software (see Table 1).

Row | Compound | IC50 [nM]
1 | OC[C@@H]1CSC(c2cc3cccc(NC4CCCC4)c3[nH]2)=N1 [Example 5, [(R)-2-(7-cyclopentylamino-1H-indol-2-yl)-4,5-dihydro-1,3-thiazol-4-yl]-methanol] | < 120
2 | OC[C@@H]1CSC(c2cc3cccc(NC4CCOCC4)c3[nH]2)=N1 [Example 7, {(R)-2-[7-(tetrahydro-pyran-4-ylamino)-1H-indol-2-yl]-4,5-dihydro-thiazol-4-yl}-methanol] | < 400
3 | O=C(O)C[C@@H]1CSC(c2cc3cc(Br)cc(NC4CCCC4)c3[nH]2)=N1 [Example 16, [(R)-2-(5-bromo-7-cyclopentylamino-1H-indol-2-yl)-4,5-dihydro-thiazol-4-yl]-acetic acid] | 3560
4 | CCOc1cc(NC2CCCC2)c2[nH]c(C3=N[C@H](CC(=O)O)CS3)cc2c1 [Example 17, [(R)-2-(7-cyclopentylamino-5-ethoxy-1H-indol-2-yl)-4,5-dihydro-thiazol-4-yl]-acetic acid] | < 120
5 | CCOC(=O)CC[C@@H]1CSC(c2cc3cc(Cl)cc(NC4CCCC4)c3[nH]2)=N1 [Example 22, 3-[(R)-2-(5-chloro-7-cyclopentylamino-1H-indol-2-yl)-4,5-dihydro-thiazol-4-yl]-propionic acid ethyl ester] | 970
6 | c1ccc(-c2cc3cccc(NC4CCCC4)c3[nH]2)nc1 [Example 24, cyclopentyl-(2-pyridin-2-yl-1H-indol-7-yl)amine] | < 120
7 | Cc1cc(NC2CCCC2)c2[nH]c(-c3nc(C(=O)O)cs3)cc2c1 [Example 29, 2-(7-cyclopentylamino-5-methyl-1H-indol-2-yl)-thiazole-4-carboxylic acid] | 1460
8 | Cc1cc(NC2CCCC2)c2[nH]c(-c3nc(CO)cs3)cc2c1 [Example 30, [2-(7-cyclopentylamino-5-methyl-1H-indol-2-yl)-thiazole-4-yl]-methanol] | < 120
9 | Cc1cc(NC2CCCC2)c2[nH]c(-c3nnco3)cc2c1 [Example 32, cyclopentyl-(5-methyl-2-[1,3,4]oxadiazol-2-yl-1H-indol-7-yl)-amine] | < 120
10 | Cc1cc(NC2CCC(=O)CC2)c2[nH]c(-c3ccccn3)cc2c1 [Example 38, 4-(5-methyl-2-pyridin-2-yl-1H-indol-7-ylamino)-cyclohexanone] | < 120
11 | Cc1cc(NCC2CCCC2)c2[nH]c(-c3ccccn3)cc2c1 [Example 40, cyclopentylmethyl-(5-methyl-2-pyridin-2-yl-1H-indol-7-yl)-amine] | < 120
12 | Cc1cc(NC2CCCC2)c2[nH]c(C3CCCCC3)cc2c1 [Example 47, (2-cyclohexyl-5-methyl-1H-indol-7-yl)-cyclopentyl-amine] | < 120
13 | CC(=O)N1CCC(Nc2cc(C)cc3cc(-c4ccccc4)[nH]c23)CC1 [Example 51, 1-[4-(5-methyl-2-phenyl-1H-indol-7-ylamino)-piperidin-1-yl]-ethanone] | 260
14 | Cc1cc(NC2CCC(C(=O)NCCN3CCOCC3)CC2)c2[nH]c(-c3ccccc3)cc2c1 (centres unmarked) [Example 56, 4-(5-methyl-2-phenyl-1H-indol-7-ylamino)-cyclohexane carboxylic acid (2-morpholin-4-yl-ethyl)-amide] | 200
15 | Cc1cc(NCC2CCOCC2)c2[nH]c(-c3ccccc3)cc2c1 [Example 58, (5-methyl-2-phenyl-1H-indol-7-yl)-(tetrahydro-pyran-4-ylmethyl)-amine] | < 120
16 | O=C(O)Cc1cc(NC2CCCC2)c2[nH]c(-c3ccccc3)cc2c1 [Example 75, (7-cyclopenthylamino-2-phenyl-1H-indol-5-yl)-acetic acid] | < 120
17 | OCCc1cc(NC2CCCC2)c2[nH]c(-c3ccccc3)cc2c1 [Example 76, 2-(7-cyclopenthylamino-2-phenyl-1H-indol-5-yl)-ethanol] | < 120
18 | O=C(O)CC1CSC(c2cc3cccc(NC4CCCC4)c3[nH]2)=N1 (centres unmarked) [Example 83] | 729
19 | O=S1(=O)CCN(Cc2cc(NCC3CCOCC3)c3[nH]c(-c4ccccc4)c(Br)c3c2)CC1 [Example 142, [3-bromo-5-(1,1-dioxo-thiomorpholin-4-ylmethyl)-2-phenyl-1H-indol-7-yl]-(tetrahydro-pyran-4-ylmethyl)-amine] | 300

Each compound was assayed on human embryonic lung cell line (LB-HEL) (assay: Cell-protecting effect against cold shock in LB-HEL cells (WST-1)). Conditions: cold shock at 4° C. for 24 hours, then 37° C., cell viability by WST-1.
Assay type: cell-based
Description: The same results as above were also obtained in other types of cells such as human embryonic lung cell line (LB-HEL) as well as hepatocytes (see FIG. 2 and Table 2). More specifically, LB-HEL cells were plated at 1.5×10^6 cells/well using DMEM medium (Gibco BRL) and treated with DMSO, nec-1, IM-54 or the compounds of Examples 126, 127, 137 and 138 at indicated concentrations. After storage at 4° C. for 24 hours, the mixture was transferred into an incubator at 37° C. and cultured therein. In order to verify recovery capacity at 37° C., cell viability after 24 hours post-transfer was measured by the optical density at 440 nm according to the WST-1 method (MK-400, Takeda) and compared with cell viability prior to cold shock (FIG. 2).

Row | Compound | IC50 [nM]
20 | Cc1cc(NC2CCC(F)(F)CC2)c2[nH]c(C3=NC(CC(=O)O)CS3)cc2c1 (centres unmarked) [Example 79] | 3300
21 | O=C(O)CC1CSC(c2cc3cccc(NC4CCCC4)c3[nH]2)=N1 (centres unmarked) [Example 83] | 3660
22 | CC(=O)N1CCC(Nc2cccc3cc(C4=NC(CC(=O)O)CS4)[nH]c23)C1 (centres unmarked) [Example 84] | 7110
23 | O=S1(=O)CCN(Cc2cc(NC3CCOCC3)c3[nH]c(-c4ccccc4)c(Br)c3c2)CC1 [Example 139] | < 100
24 | Brc1c(-c2ccccc2)[nH]c2c(NC3CCOCC3)cc(CN3CCOCC3)cc12 [Example 140, [3-bromo-(5-morpholin-4-yl)methyl-2-phenyl-1H-indol-7-yl]-(tetrahydropyran-4-yl)-amine] | < 100
25 | O=S1(=O)CCN(Cc2cc(NC3CCCC3)c3[nH]c(-c4ccccc4)c(Br)c3c2)CC1 [Example 141, [3-bromo-5-(1,1-dioxo-thiomorpholin-4-yl methyl)-2-phenyl-1H-indol-7-yl]-cyclopentyl-amine] | < 100
26 | O=S1(=O)CCN(Cc2cc(NCC3CCOCC3)c3[nH]c(-c4ccccc4)c(Br)c3c2)CC1 [Example 142, [3-bromo-5-(1,1-dioxo-thiomorpholin-4-ylmethyl)-2-phenyl-1H-indol-7-yl]-(tetrahydro-pyran-4-ylmethyl)-amine] | < 100
27 | Clc1cc(NC2CCOCC2)c2[nH]cc(-c3ccccc3)c2c1 [Example 143, (5-chloro-3-phenyl-1H-indol-7-yl)-(tetrahydro-pyran-4-yl)-amine] | < 100
28 | Clc1cc(NC2CCCC2)c2[nH]cc(-c3ccccc3)c2c1 [Example 144, (5-chloro-3-phenyl-1H-indol-7-yl)-(cyclopentyl)-amine] | < 100
29 | Clc1cc(NCC2CCOCC2)c2[nH]cc(-c3ccccc3)c2c1 [Example 145, (5-chloro-3-phenyl-1H-indol-7-yl)-(tetrahydropyran-4-ylmethyl)-amine] | < 100
30 | O=C1CN(Cc2c(-c3ccccc3)[nH]c3c(NC4CCCC4)cc(Cl)cc23)CCN1 [Example 147, 4-(5-chloro-7-cyclopentylamino-2-phenyl-1H-indol-3-ylmethyl)-piperazin-2-one] | 1080
31 | O=C1CN(Cc2c(-c3ccccc3)[nH]c3c(NC4CCOCC4)cc(Cl)cc23)CCN1 [Example 148, 4-[5-chloro-2-phenyl-7-(tetrahydropyran-4-ylamino)-1H-indol-3-ylmethyl]-piperazin-2-one] | 2350
32 | O=C1CN(Cc2c(-c3ccccc3)[nH]c3c(NCC4CCOCC4)cc(Cl)cc23)CCN1 [Example 149, 4-{5-chloro-2-phenyl-7-[(tetrahydropyran-4-ylmethyl)-amino]-1H-indol-3-ylmethyl}-piperazin-2-one] | 1450
33 | COc1ccc(-c2n[nH]c3c(NC4CCCC4)cccc23)cc1 [Example 150, cyclopentyl-[3-(4-methoxyphenyl)-1H-indazol-7-yl]-amine] | 210
34 | COc1ccc(-c2n[nH]c3c(NC4CCOCC4)cccc23)cc1 [Example 151, [3-(4-methoxyphenyl)-1H-indazol-7-yl]-(tetrahydropyran-4-yl)-amine] | 384
35 | COc1ccc(-c2n[nH]c3c(NCC4CCOCC4)cccc23)cc1 [Example 152, [3-(4-methoxyphenyl)-1H-indazol-7-yl]-(tetrahydropyran-4-ylmethyl)-amine] | 590
